Key:
[1] = test system: SNCA-3X DA neurons and α-syn overexpressing cell lines; assay: ER stress induction, UPR markers (mRNA/protein); format: cell-based, human; conditions: for XBP1-S / mRNA/protein levels of ER chaperones including GRP78, GRP94, and CANX: 30 nM Tg or 50 ng/ml BFA for 24 hours
Method: Total RNA was isolated from cells in a 24 or 12 well format using an RNeasy Mini Prep kit (QIAGEN). cDNA was synthesized by reverse transcriptase PCR (RT-PCR) using the RevertAid First Strand cDNA synthesis kit (Thermo Fisher Scientific). Quantitative PCR was performed on the Applied Biosystems 7500 Fast system using the cDNA and pre-designed TaqMan-primer probes for the target genes. The target mRNA expression was quantified relative to GAPDH or […] using the delta-delta-Ct method, and represented as a fold change.

[2] = test system: midbrain neurons from a GD (N370S/84GG) and a PD patient that harbors a GBA1 mutation (N370S/wt); assay: GCase maturation and α-syn western blot in GBA1 mutant patient neurons; conditions: GD (N370S/84GG) and GBA-PD (N370S/wt) neurons; two weeks
A53T iPSn [3] = assay: N-glycosylated proteins by Con A-biotin western blot; format: cell-based, human
Method: (§1) Protein extraction was done as described in detail (Stojkovska and Mazzulli, 2021). […] Supernatant was discarded and the cell pellets were subjected to homogenization in 1% Triton X-100 buffer (1% Triton X-100, 20 mM HEPES pH 7.4, 150 mM NaCl, 10% glycerol, 1 mM EDTA, 1.5 mM MgCl2, 1 mM phenylmethanesulfonyl fluoride (PMSF), 50 mM NaF, 2 mM Na orthovanadate, and a protease inhibitor cocktail (Roche diagnostics, https://www.roche.com, #11-836-170-001)) by homogenization. […] Protein band intensities was quantified by the ImageStudio software ver 3.1.
(§2) . The transfection was performed with X-tremeGENE transfection reagent (Roche #6366236001) as described previously (Cuddy et al., 2019). Lentiviral particles were collected from the media and concentrated using Lenti-X concentrator (Clontech, #631232). […] The viral particle number and the number of plated cells was used to calculate the multiplicity of infection (MOI). For GFPT2 Overexpression the A53T neurons were infected at MOI-3 and harvested 2 weeks post-infection. A53T neurons were infected with XBP1^s lentivirus at MOI-1 and harvested 16 days post-infection. […]
(§3) Neurons were treated with or without 5 ug/ml tunicamycin (EMD Millipore/Calbiochem) for 24 hrs. Cells were extracted in 1% Triton X-100 buffer and analyzed by western blot for Hex B, Con-A, or GFPT2 as described in “Sequential protein extraction and western blotting analysis”. […]

A53T iPSn [4] = assay: Hex B glycosylation and maturation by western blot; format: cell-based, human
Method: as §1, §2, §3

A53T iPSn [5] = assay: GCase solubility and maturation (sequential extraction, Endo H, western blot); format: cell-based, human; conditions: 10 mM GlcNAc for 7 days
Method: as §1
Analysis of post-ER GCase: This assay was performed as described in detail (Cuddy and Mazzulli, 2021). Briefly, 40 ug of lysate were subjected to Endoglycosidase H (Endo H) digestion as per the manufacturer's protocol (New England Biolabs, https://www.neb.com) at 37° C. for 2 h. Duplicate samples without enzyme were incubated under the same conditions serving as control (undigested samples). […] Endo H resistant bands migrating 62-64 kDa were measured as post-ER forms and maturation was calculated by quantifying the post-ER/ER ratios. Quantification was performed on Image Studio software (Licor). […] Standard error of the mean values were graphed, analyzed by student's t-test, and p values <0.05 were considered significant. […]

lysosomal GCase = assay: Live-cell lysosomal GCase activity assay; format: cell-based, human; conditions: live A53T patient neurons; 10 mM GlcNAc
Method: Live-cell lysosomal GCase activity assay. The procedure and analysis method for the activity assay has been previously described in detail (Cuddy and Mazzulli, 2021). Briefly, one day prior to the assay, cells were treated with 1 mg/ml cascade dextran blue (Life Technologies) in a 96-well plate for 24 hours. This was followed by treatment of cells with DMSO or 200 nM bafilomycin A1 for 1 hour at 37° C. The cells were subjected to 1 hour pulse chase with an artificial fluorescent GCase substrate, 100 ug/ml 5-(pentafluoro-benzoylamino) fluorescein di-ß-D-glucopyranoside (PFB-FDGluc; Life Technologies), at 37° C. The fluorescence signal was measured every 30 minutes for the span of 3-4 hours on a plate reader (Ex=485 nm, Em=530 nm, for the GCase substrates; Ex=400 nm, Em=430 nm for cascade dextran blue). For the analysis, the GCase fluorescence signal was normalized to either lysosomal mass by using cascade dextran blue signal or total cell volume by quantifying CellTag 700 staining signal.
The transfection was performed with X-tremeGENE transfection reagent (Roche #6366236001) as described previously (Cuddy et al., 2019). Lentiviral particles were collected from the media and concentrated using Lenti-X concentrator (Clontech, #631232). […] The viral particle number and the number of plated cells was used to calculate the multiplicity of infection (MOI). […]

A53T iPSn [6] = assay: α-syn sequential extraction/western blot; format: cell-based, human; conditions: 10 mM GlcNAc for 7 days
Method: as §1
The transfection was performed with X-tremeGENE transfection reagent (Roche #6366236001) as described previously (Cuddy et al., 2019). Lentiviral particles were collected from the media and concentrated using Lenti-X concentrator (Clontech, #631232). […] The viral particle number and the number of plated cells was used to calculate the multiplicity of infection (MOI). For GFPT2 Overexpression the A53T neurons were infected at MOI-3 and harvested 2 weeks post-infection. A53T neurons were infected with XBP1^s lentivirus at MOI-1 and harvested 16 days post-infection. Neurons infected with lentivirus expressing GFP was used as control.
iPSC neurons were supplemented with or without GlcNAc (A3286-sigma) at 10 mM for 7 days in PBS.

A53T iPSn [7] = assay: Neurofilament toxicity assay (neuron viability); format: cell-based, human
Method: iPSC-neurons 96 well format were fixed in 4% paraformaldehyde in PBS for 20 minutes, followed by incubation in 0.3% Triton X-100 (PBS) for 20 min. The cells were then blocked with Odyssey blocking buffer (Li-Cor) for 1 h. Anti-neurofilament antibody (1:1000, mouse IgG 2H3, Developmental Studies Hybridoma Bank, University of Iowa, Iowa City, Iowa) was incubated overnight in blocking buffer at 4° C., followed by washing in PBS with 0.1% Tween for 20 min. IRdye 800-conjugated anti-mouse IgG antibodies (1:1000 dilution, Li-Cor) was incubated in blocking buffer for 1 hour and CellTag™ 700 (Li-Cor) was also added for normalization. The Cells were washed four times in PBS-0.1% Tween and scanned on an Odyssey infrared imaging system (Li-Cor). Neurofilament intensity was determined by Image Studio software (version 2.1 Li-Cor) and normalized to […].
as §2, with “The” for “. The”, “post-infection.” for “post-infection. A53T neurons were infected with XBP1^s lentivirus at MOI-1 and harvested 16 days post-infection.”

[8] = test system: wild-type or isogenic control neurons; assay: ER stress induction and insoluble GCase in control neurons; format: cell-based, human; conditions: 30 nM Tg for 24 hours
control iPSn = assay: N-glycosylated proteins by Con A-biotin western blot; format: cell-based, human; conditions: tunicamycin 5 ug/ml, 24 hours
Method: as §1
(§4) Neurons were treated with or without 5 ug/ml tunicamycin (EMD Millipore/Calbiochem) for 24 hrs. Cells were extracted in 1% Triton X-100 buffer and analyzed by western blot for Hex B, Con-A, or GFPT2 as described in “Sequential protein extraction and western blotting analysis”. For mRNA measurement, total RNA was extracted and isolated as described in “Measurement of mRNA.” cDNA was synthesized and subjected to real-time PCR using Taqman-primer probe sets for GFPT2, XBP1U, and GRP78.

isogenic control iPSn = assay: Hex B glycosylation by western blot; format: cell-based, human; conditions: control cells; tunicamycin
Method: as §1, §4

wt iPSn = assay: Quantitative RT-PCR mRNA analysis; format: cell-based, human; conditions: tunicamycin 5 ug/ml, 24 h
Method: (§5) Measurement of RNA. Total RNA was extracted and isolated using the PureLink RNA Mini Kit (Thermofisher Scientific). cDNA was synthesized using the RevertAid First Strand cDNA Synthesis Kit (Thermofisher Scientific). Real-time PCR was performed on an Applied Biosystems 7500 Fast system using pre-designed Taqman-primer probe sets: DPAGT1 (Hs00609752_m1), GFPT2 (Hs01049570_m1), XBP1U (Hs02856596_m1), XBP1s (Hs03929085_g1), GRP78 (Hs99999174_m1), HSP90B1/GRP94 (Hs00427665_g1), GBA1 (Hs00164683_m1), HexB (Hs01077594_m1) and ACTB (Hs01060665_g1). The quantifications represent the fold change of target mRNA expression normalized to beta-actin (ACTB) levels by delta-Ct method. The values are mean and s.e.m of biological replicates (n=3-6) with two technical replicates for each.
as §4

A53T iPSn [9] = assay: Quantitative RT-PCR mRNA analysis; format: cell-based, human
Method: as §5
. The transfection was performed with X-tremeGENE transfection reagent (Roche #6366236001) as described previously (Cuddy et al., 2019). Lentiviral particles were collected from the media and concentrated using Lenti-X concentrator (Clontech, #631232). […]
as §3

SNCA-3x iPSn = assay: GFPT2 western blot; format: cell-based, human; conditions: tunicamycin
Method: as §1, §4

isogenic controls = assay: GFPT2 western blot; format: cell-based, human; conditions: isogenic controls of SNCA-3x; tunicamycin
Method: as §1, §4

## C[C@H]1CCC/C=C/[C@@H]2C[C@H](O)C[C@H]2[C@H](O)/C=C/C(=O)O1 [BFA]
[1]
  XBP1-S: dramatic upregulation of XBP1-S
  mRNA/protein levels of ER chaperones including GRP78, GRP94, and CANX: significantly increased mRNA/protein levels of ER chaperones

## C#Cc1cccc(-c2cc(=O)n(C)c3ccc([C@](O)(c4ccc(Cl)cc4)c4cncn4C)cc23)c1 [FTI, 6-[(R)-(4-chlorophenyl)hydroxy(1-methyl-1H-imidazol-5-yl)methyl]-4-(3-ethynylphenyl)-1-methyl-2(1H)-Quinolinone]
[2]
  GCase maturation: minimal effects
  α-syn levels: minimal effects

## CC(=O)NC1C(O)[C@H](O)C(CO)O[C@H]1O (stereo partly drawn) [GlcNAc, β-D-(acetylamino)-2-deoxy-glucopyranose]
A53T iPSn [3]
  N-glycosylated proteins (Con A): completely restored the levels of N-glycosylation to control levels
A53T iPSn [4]; 10 mM GlcNAc for 7 days
  glycosylated and mature forms of Hex B: enhanced the glycosylated and mature forms of Hex B
A53T iPSn [5]
  increase in the levels of mature, soluble GCase: 2 fold
Lysosomal GCase
  increase of GCase activity levels: ~2 fold
A53T iPSn [6]
  reduction in pathological α-syn: ~75%
A53T iPSn [7]
  neuron viability (neurofilament / neurite content): improved neuron viability

## C/C=C(/C)C(=O)O[C@H]1C(C)=C2[C@H]([C@@H]1OC(=O)CCCCCCC)[C@@](C)(OC(C)=O)C[C@H](OC(=O)CCC)[C@@]1(O)[C@H]2OC(=O)[C@@]1(C)O [Tg]
[1]
  XBP1-S: dramatic upregulation of XBP1-S
  mRNA/protein levels of ER chaperones including GRP78, GRP94, and CANX: significantly increased mRNA/protein levels of ER chaperones
[1]; isogenic controls and SNCA-3X DA neurons, 30 nM Tg
  phospho-eIF2α: increased phospho-eIF2α to a similar degree
[8]
  GRP78 expression (ER stress): increased GRP78 expression

## tunicamycin
Control iPSn
  reduction of N-glycans: ~50%
A53T iPSn [3]
  N-glycosylated proteins (Con A): no effect
Isogenic control iPSn
  Hex B glycosylation: blocked Hex B glycosylation
A53T iPSn [4]; A53T iPSn compared to controls
  Hex B response to tunicamycin: reduced response
Wt iPSn
  upregulation of GFPT2 mRNA: ~2 fold
A53T iPSn [9]; A53T iPSn versus Corr, tunicamycin
  UPR-responsive transcripts XBP1 and GRP78: less responsive
A53T iPSn [9]; A53T iPSn, tunicamycin 5 ug/ml, 24 h
  upregulation of GFPT2 mRNA: ~1.2 fold
SNCA-3x iPSn
  GFPT2 protein: no effect
Isogenic controls
  elevation of GFPT2 protein: 60%
